Measured values reported in patent US5294617A, “Angiotensin II receptor blocking 2,3,6 substituted quinazolinones” (American Cyanamid Company, priority 1993, dated 1994).
Where “and” joins values, the source holds several entries; their conditions need not be identical. Equal values may be shown once.

System: ANGIOTENSIN II (AII) VASOPRESSOR RESPONSE
Test: AII Challenge: angiotensin II vasopressor response in conscious spontaneously hypertensive rats
Format: in vivo, Conscious Male Okamoto-Aoki SHR (rat)
Details: for % Inhibition / Average Change: SHR n=2; for Response After AII / Response Change: individual rat, SHR
Excerpt: By administering a compound of this invention to a rat, and then challenging with angiotensin II, a blockage of the vasopressor response is realized.
Conscious Male Okamoto-Aoki SHR, 16-20 weeks old, weighing approximately 330 g are purchased from Charles River Labs (Wilmington, Mass.). Conscious rats are restrained in a supine position with elastic tape. The area at the base of the tail is locally anesthetized by subcutaneous infiltration with 2% procaine. The ventral caudal artery and vein are isolated, and a cannula made of polyethylene (PE) 10-20 tubing (fused together by heat) is passed into the lower abdominal aorta and vena cava, respectively. The cannula is secured, heparinized (1,000 I.U./ml), sealed and the wound is closed. The animals are placed in plastic restraining cages in an upright position. The cannula is attached to a Statham P23Db pressure transducer, and pulsatile blood pressure is recorded to 10-15 minutes with a Gould Brush recorder. (Chan et al., (Drug Development Res., 18:75-94, 1989).
Angiotensin II (human sequence, Sigma Chem. Co., St. Louis, Mo.) of 0.05 and 0.1 ug/kg i.v. is injected into all rats (predosing response). Then a test compound, vehicle or a known angiotensin II antagonist is administered i.v., i.p. or orally to each set of rats. The two doses of angiotensin II are given to each rat again at 30, 60, 90, 120, 180, 240 and 300 minutes post dosing the compound or vehicle. The vasopressor response of angiotensin II is measured for the increase in systolic blood pressure in mmHg. The percentage of antagonism or blockade of the vasopressor response of angiotensin II by a compound is calculated using the vasopressor response (increase in systolic blood pressure) of angiotensin II of each rat predosing the compound as 100%. A compound is considered active if at 30 mg/kg i.v. it antagonized at least 50% of the response.

[1] = 2 mg/kg i.v., AII 0.05 mcg/kg IV, 30 min post dose
[2] = 2 mg/kg i.v., AII 0.05 mcg/kg IV, 60 min post dose
[3] = 2 mg/kg i.v., AII 0.05 mcg/kg IV, 90 min post dose
[4] = 2 mg/kg i.v., AII 0.05 mcg/kg IV, 120 min post dose
[5] = 2 mg/kg i.v., AII 0.05 mcg/kg IV, 180 min post dose
[6] = 2 mg/kg i.v., AII 0.1 mcg/kg IV, 30 min post dose
[7] = 2 mg/kg i.v., AII 0.1 mcg/kg IV, 60 min post dose
[8] = 2 mg/kg i.v., AII 0.1 mcg/kg IV, 90 min post dose
[9] = 2 mg/kg i.v., AII 0.1 mcg/kg IV, 120 min post dose
[10] = 2 mg/kg i.v., AII 0.1 mcg/kg IV, 180 min post dose
[11] = 10 mg/kg i.v., AII 0.05 mcg/kg IV, 30 min post dose
[12] = 10 mg/kg i.v., AII 0.05 mcg/kg IV, 60 min post dose
[13] = 10 mg/kg i.v., AII 0.05 mcg/kg IV, 90 min post dose
[14] = 10 mg/kg i.v., AII 0.05 mcg/kg IV, 120 min post dose
[15] = 10 mg/kg i.v., AII 0.05 mcg/kg IV, 180 min post dose
[16] = 10 mg/kg i.v., AII 0.05 mcg/kg IV, 240 min post dose
[17] = 10 mg/kg i.v., AII 0.05 mcg/kg IV, 300 min post dose
[18] = 10 mg/kg i.v., AII 0.1 mcg/kg IV, 30 min post dose
[19] = 10 mg/kg i.v., AII 0.1 mcg/kg IV, 60 min post dose
[20] = 10 mg/kg i.v., AII 0.1 mcg/kg IV, 90 min post dose
[21] = 10 mg/kg i.v., AII 0.1 mcg/kg IV, 120 min post dose
[22] = 10 mg/kg i.v., AII 0.1 mcg/kg IV, 180 min post dose
[23] = 10 mg/kg i.v., AII 0.1 mcg/kg IV, 240 min post dose
[24] = 10 mg/kg i.v., AII 0.1 mcg/kg IV, 300 min post dose
[25] = 2 mg/kg i.v., AII 0.05 mcg/kg IV, 30 min post dose, 2 mg/kg
[26] = 2 mg/kg i.v., AII 0.05 mcg/kg IV, 60 min post dose, 2 mg/kg
[27] = 2 mg/kg i.v., AII 0.05 mcg/kg IV, 90 min post dose, 2 mg/kg
[28] = 2 mg/kg i.v., AII 0.05 mcg/kg IV, 180 min post dose, 2 mg/kg
[29] = 2 mg/kg i.v., AII 0.1 mcg/kg IV, 30 min post dose, 2 mg/kg
[30] = 2 mg/kg i.v., AII 0.1 mcg/kg IV, 60 min post dose, 2 mg/kg

Structure (SMILES): CCCCc1nc2ccc([C@@H]3C[C@H](CO)ON3C)cc2c(=O)n1Cc1ccc(-c2ccccc2-c2nn[nH]n2)cc1 (relative stereo) [Example 15, CIS-2-butyl-6-5-(hydroxymethyl)-2-methyl-3-isoxazolidinyl]-3-[[2'-(1H-tetrazol-5[1,1'-biphenyl]-4-yl]methyl]-4(3H)-quinazolinone]
- % Inhibition [1]: 43%
- Average Change [1]: 26 mmHg
- % Inhibition [2]: 67%
- Average Change [2]: 15 mmHg
- % Inhibition [3]: 67%
- Average Change [3]: 15 mmHg
- % Inhibition [4]: 67%
- Average Change [4]: 15 mmHg
- % Inhibition [5]: 43%
- Average Change [5]: 26 mmHg
- % Inhibition [6]: 38%
- Average Change [6]: 30 mmHg
- % Inhibition [7]: 45%
- Average Change [7]: 26.5 mmHg
- % Inhibition [8]: 48%
- Average Change [8]: 25 mmHg
- % Inhibition [9]: 62%
- Average Change [9]: 18.5 mmHg
- % Inhibition [10]: 54%
- Average Change [10]: 22.5 mmHg
- % Inhibition [11]: 78%
- Average Change [11]: 10 mmHg
- % Inhibition [12]: 99%
- Average Change [12]: 0.5 mmHg
- % Inhibition [13]: 89%
- Average Change [13]: 5 mmHg
- % Inhibition [14]: 72%
- Average Change [14]: 12.5 mmHg
- % Inhibition [15]: 56%
- Average Change [15]: 20 mmHg
- % Inhibition [16]: 67%
- Average Change [16]: 15 mmHg
- % Inhibition [17]: 70%
- Average Change [17]: 13.5 mmHg
- % Inhibition [18]: 100%
- Average Change [18]: 0 mmHg
- % Inhibition [19]: 80%
- Average Change [19]: 9 mmHg
- % Inhibition [20]: 72%
- Average Change [20]: 12.5 mmHg
- % Inhibition [21]: 72%
- Average Change [21]: 12.5 mmHg
- % Inhibition [22]: 52%
- Average Change [22]: 21.5 mmHg
- % Inhibition [23]: 52%
- Average Change [23]: 21.5 mmHg
- % Inhibition [24]: 28%
- Average Change [24]: 32,5 mmHg
- Response After AII [25]: 237 mmHg and 255 mmHg
- Response Change [25]: 22 mmHg and 30 mmHg
- Response After AII [2]: 245 mmHg
- Response After AII [26]: 225 mmHg
- Response Change [26]: 25 mmHg and 5 mmHg
- Response After AII [27]: 230 mmHg and 235 mmHg
- Response Change [27]: 20 mmHg and 10 mmHg
- Response Change [4]: 15 mmHg
- Response After AII (2 mg/kg i.v., AII 0.05 mcg/kg IV, 120 min post dose, 2 mg/kg): 220 mmHg and 230 mmHg
- Response After AII [28]: 220 mmHg and 250 mmHg
- Response Change [28]: 17 mmHg and 35 mmHg
- Response After AII [29]: 245 mmHg and 250 mmHg
- Response Change [29]: 25 mmHg and 35 mmHg
- Response After AII [30]: 255 mmHg and 235 mmHg
- Response Change [30]: 35 mmHg and 18 mmHg
